According to patent publication EP0055996A1, “Antithrombotic treatment” (T AND R CHEMICALS, INC., priority 1980, dated 1982):

What was measured:
coagulation factors [1] = test: In vitro prothrombin time (PT) coagulation assay; set-up: species or system human; conditions: for PT(sec) REPLICATIONS I: replication I
Experimental: (§1) In vitro assays of the product of each of Examples A to C and certain of the Examples included in European Application No 81302950.1 were conducted for coagulation factors as described in "Human Blood Coagulation., Haemostasis and Thrombosis", edited by Rosemary Biggs, published by Blackwell Scientific Publications, Oxford, England (2nd Edition), pages 670-705, 1976.

coagulation factors [2] = test: In vitro partial thromboplastin time (PTT) coagulation assay; set-up: species or system human; conditions: for PTT(sec) REPLICATIONS I: replication I
Experimental: as §1

[3] = Used at 0.01 Molar Concentration Based on NaHSO3
[4] = Used at 0.01 Molar Concentration Based on NaHSO3, replication II
[5] = Used at 0.01 Molar Concentration Based on NaHSO3, replication III

| SMILES | PT(sec) REPLICATIONS I (coagulation factors [1]; [3]) [s] | PT(sec) REPLICATIONS II (coagulation factors [1]; [4]) [s] | PT(sec) REPLICATIONS III (coagulation factors [1]; [5]) [s] | PTT(sec) REPLICATIONS I (coagulation factors [2]; [3]) [s] | PTT(sec) REPLICATIONS II (coagulation factors [2]; [4]) [s] | PTT(sec) REPLICATIONS III (coagulation factors [2]; [5]) [s] | ability to affect PT values (coagulation factors [1]; no conditions given) | ability to affect PTT values (coagulation factors [2]; no conditions given) |
| --- | --- | --- | --- | --- | --- | --- | --- | --- |
| O=S([O-])O.[Na+] [NaHSO3 in water, sodium bisulphite] | 20.2 | 20.3 | 20.0 | 64.4 | 63.2 | 63.9 | – | – |
| O=S(=O)(O)CO [Sodium formaldehyde bisulphite] | 20.5 | – | – | 63.5 | – | – | – | – |
| O=S=O [aqueous solutions of sulphur dioxide, sulphur dioxide] | – | – | – | – | – | – | display a capacity to lengthen PT and PTT values at least to the extent indicated above | display a capacity to lengthen PT and PTT values at least to the extent indicated above |
